{"source": "patent US11345914B2", "about": "“Composition for delivering nucleic acid and nucleic acid-containing composition” (TOKYO UNIVERSITY OF PHARMACY AND LIFE SCIENCES, priority 2017, dated 2022)", "test_system": "CIA (Collagen-Induced Arthritis) Mouse", "experiment": "In vivo evaluation arthritis treatment effect of CIA mice", "details": "until 15th day, siRNA (RelA) 20 μg/day tail vein (composition as Example 24, N/P 20), MTX 90 μg intraperitoneal", "protocol": "Under ice-cooling, while adding an equal amount of type II collagen solution (2 mg/mL) dropwise to complete Freund's adjuvant (CFA), the mixture was homogenized to prepare an emulsion. Similarly, while adding an equal amount of type II collagen solution (2 mg/mL) dropwise to incomplete Freund's adjuvant (IFA), the mixture was homogenized to prepare an emulsion. The prepared emulsion was confirmed to have formed a w/o type emulsion by maintaining a sphere even when it was dropped on the water surface, and was used in the experiment.\nUsing 8-weeks old male DBA/1J mice, CIA mice were prepared. In the following, the schedule for preparing CIA mice is shown. 100 μL of the emulsion obtained from type II collagen and CFA prepared at −21′ day was intradermally administered to the tail root portion to carry out induction of the first immunization. 100 μL of the emulsion obtained from type II collagen and […] prepared at 0th day was similarly intradermally administered to carry out additional induction of the immunization. At this time, the intradermal administration was carried out reliably was confirmed by the fact that the administered site was protruded with white. […]\nThickening of the hindlimb ankle joint portion was measured by using a micrometer. […]\nClinical score was calculated as follows. […]"}
{"smiles": "CN(Cc1cnc2nc(N)nc(N)c2n1)c1ccc(C(=O)N[C@@H](CCC(=O)O)C(=O)O)cc1", "note": "[MTX, methotrexate]", "values": [{"measurement": "thickening increasing rate of the hindlimbs", "setting": "FIG. 4", "result": "thickening of the hindlimbs was admitted"}, {"measurement": "clinical score", "setting": "FIG. 5", "result": "remarkable increase in the clinical score was admitted"}]}
